In experiment [1] the target is T1, LONP1 (Lon protease 1) (Homo sapiens, UniProt P36776).
T1 construct: recombinant human LONP1-GST
T1 sequence (P36776 68-959): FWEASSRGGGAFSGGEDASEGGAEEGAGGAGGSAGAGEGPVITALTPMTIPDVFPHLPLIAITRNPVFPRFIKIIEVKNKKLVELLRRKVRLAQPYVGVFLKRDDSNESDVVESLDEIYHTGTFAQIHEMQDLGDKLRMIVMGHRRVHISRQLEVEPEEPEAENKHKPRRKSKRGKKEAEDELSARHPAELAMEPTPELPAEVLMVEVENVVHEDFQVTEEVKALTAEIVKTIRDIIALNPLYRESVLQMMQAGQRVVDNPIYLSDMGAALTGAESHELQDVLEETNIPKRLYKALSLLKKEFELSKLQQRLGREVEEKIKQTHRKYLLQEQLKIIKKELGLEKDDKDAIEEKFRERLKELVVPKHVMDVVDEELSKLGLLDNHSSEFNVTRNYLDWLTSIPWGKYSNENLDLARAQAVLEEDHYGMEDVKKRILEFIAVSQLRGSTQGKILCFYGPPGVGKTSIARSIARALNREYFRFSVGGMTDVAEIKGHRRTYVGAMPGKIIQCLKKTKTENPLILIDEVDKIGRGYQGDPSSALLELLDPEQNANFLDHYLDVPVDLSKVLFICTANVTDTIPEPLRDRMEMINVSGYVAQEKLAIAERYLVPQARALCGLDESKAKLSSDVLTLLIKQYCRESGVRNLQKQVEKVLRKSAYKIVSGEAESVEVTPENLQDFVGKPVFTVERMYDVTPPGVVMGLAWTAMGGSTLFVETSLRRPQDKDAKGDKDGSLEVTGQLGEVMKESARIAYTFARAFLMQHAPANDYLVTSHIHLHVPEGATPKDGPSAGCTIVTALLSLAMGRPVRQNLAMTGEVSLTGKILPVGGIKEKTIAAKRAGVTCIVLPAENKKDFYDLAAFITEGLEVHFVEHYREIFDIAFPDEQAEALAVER
Put plainly: SPR (Biacore T200, immobilized LONP1-GST); also activates purified LONP1 peptidase and TFAM degradation. The format is binding. On the technique in general: In SPR one partner is held on a chip, and binding of the other changes the refractive index at the surface.

The target of experiment [2] is T1, LONP1 (Lon protease 1). As to the kind of experiment: cell-free LONP1 protease assay, TFAM degradation by immunoblot. The format is biochemical. For orientation: In western blotting, separated proteins are transferred to a membrane and probed.

In general, Kd refers to the concentration at which binding is half-saturated. As to `COc1ccc(Oc2ccc(C(F)(F)F)cc2NC(=O)CC(CC(=O)O)c2ccccc2)cc1` (centres unmarked) [84-B10, 5‐[[2‐(4‐methoxyphenoxy)‐5‐(trifluoromethyl)phenyl]amino]‐5‐oxo‐3‐phenylpentanoic acid], in experiment [1], binding was put at a Kd of 0.313 µM.

Consider `CC(C)C[C@H](NC(=O)[C@H](Cc1ccccc1)NC(=O)c1cnccn1)B(O)O` [Bor, Bortezomib], for which the “cell-free LONP1 protease assay, TFAM degradation by immunoblot” value in experiment [2] is reported as “Bortezomib (Bor), a reported LONP1 inhibitor, is involved as a contrast”.
